Test results as given in the NIST ThermoML archive (doi:10.1021/acs.jced.5b00385).
Numbers after ± are expanded uncertainties.

Conditions: Liquid, Vibrating tube method

Structure (SMILES): CCOC(=O)CCC(=O)OCC [diethyl butanedioate]
- mass density (283.56 K, 100010 kPa): 1102.48 ± 1.3 kg/m3
- mass density (283.57 K, 100 kPa): 1049.61 ± 1.1 kg/m3
- mass density (283.57 K, 1000 kPa): 1050.21 ± 1.1 kg/m3
- mass density (283.57 K, 3000 kPa): 1051.56 ± 1.1 kg/m3
- mass density (283.57 K, 5000 kPa): 1052.88 ± 1.1 kg/m3
- mass density (283.57 K, 10000 kPa): 1056.11 ± 1.1 kg/m3
- mass density (283.57 K, 15000 kPa): 1059.25 ± 1.1 kg/m3
- mass density (283.57 K, 30000 kPa): 1068.16 ± 1.1 kg/m3
- mass density (283.57 K, 40000 kPa): 1073.71 ± 1.1 kg/m3
- mass density (283.57 K, 50000 kPa): 1079 ± 1.2 kg/m3
- mass density (283.57 K, 60000 kPa): 1084.1 ± 1.2 kg/m3
- mass density (283.57 K, 70000 kPa): 1089.01 ± 1.2 kg/m3
- mass density (283.57 K, 80000 kPa): 1093.63 ± 1.2 kg/m3
- mass density (283.57 K, 90010 kPa): 1098.12 ± 1.3 kg/m3
- mass density (283.58 K, 20000 kPa): 1062.29 ± 1.1 kg/m3
- mass density (283.58 K, 25000 kPa): 1065.25 ± 1.1 kg/m3
- mass density (293.49 K, 100 kPa): 1039.78 ± 1.1 kg/m3
- mass density (293.49 K, 20000 kPa): 1053.11 ± 1.1 kg/m3
- mass density (293.49 K, 25000 kPa): 1056.23 ± 1.1 kg/m3
- mass density (293.49 K, 40000 kPa): 1065.07 ± 1.1 kg/m3
- mass density (293.49 K, 60000 kPa): 1075.9 ± 1.2 kg/m3
- mass density (293.5 K, 1000 kPa): 1040.41 ± 1.1 kg/m3
- mass density (293.5 K, 3000 kPa): 1041.81 ± 1.1 kg/m3
- mass density (293.5 K, 5000 kPa): 1043.2 ± 1.1 kg/m3
- mass density (293.5 K, 10000 kPa): 1046.6 ± 1.1 kg/m3
- mass density (293.5 K, 15000 kPa): 1049.91 ± 1.1 kg/m3
- mass density (293.5 K, 30000 kPa): 1059.25 ± 1.1 kg/m3
- mass density (293.5 K, 50000 kPa): 1070.61 ± 1.1 kg/m3
- mass density (293.5 K, 70000 kPa): 1080.89 ± 1.2 kg/m3
- mass density (293.5 K, 80000 kPa): 1085.77 ± 1.2 kg/m3
- mass density (293.51 K, 90000 kPa): 1090.39 ± 1.2 kg/m3
- mass density (293.51 K, 100000 kPa): 1094.9 ± 1.3 kg/m3
- mass density (303.42 K, 100 kPa): 1028.98 ± 1.1 kg/m3
- mass density (303.42 K, 1000 kPa): 1029.62 ± 1.1 kg/m3
- mass density (303.42 K, 20000 kPa): 1042.98 ± 1.1 kg/m3
- mass density (303.42 K, 25000 kPa): 1046.26 ± 1.1 kg/m3
- mass density (303.42 K, 60000 kPa): 1066.78 ± 1.1 kg/m3
- mass density (303.42 K, 70000 kPa): 1072.05 ± 1.2 kg/m3
- mass density (303.42 K, 80000 kPa): 1077.09 ± 1.2 kg/m3
- mass density (303.43 K, 3000 kPa): 1031.12 ± 1.1 kg/m3
- mass density (303.43 K, 5000 kPa): 1032.59 ± 1.1 kg/m3
- mass density (303.43 K, 15000 kPa): 1039.61 ± 1.1 kg/m3
- mass density (303.43 K, 30000 kPa): 1049.4 ± 1.1 kg/m3
- mass density (303.43 K, 40000 kPa): 1055.5 ± 1.1 kg/m3
- mass density (303.43 K, 50000 kPa): 1061.26 ± 1.1 kg/m3
- mass density (303.43 K, 90000 kPa): 1081.92 ± 1.2 kg/m3
- mass density (303.43 K, 100000 kPa): 1086.58 ± 1.3 kg/m3
- mass density (303.44 K, 10000 kPa): 1036.15 ± 1.1 kg/m3
- mass density (313.31 K, 15000 kPa): 1030.05 ± 1.1 kg/m3
- mass density (313.31 K, 50000 kPa): 1052.81 ± 1.1 kg/m3
- mass density (313.32 K, 5000 kPa): 1022.61 ± 1.1 kg/m3
- mass density (313.32 K, 10000 kPa): 1026.44 ± 1.1 kg/m3
- mass density (313.32 K, 30000 kPa): 1040.39 ± 1.1 kg/m3
- mass density (313.32 K, 40000 kPa): 1046.78 ± 1.1 kg/m3
- mass density (313.33 K, 100 kPa): 1018.75 ± 1 kg/m3
- mass density (313.33 K, 1000 kPa): 1019.44 ± 1 kg/m3
- mass density (313.33 K, 3000 kPa): 1021.07 ± 1.1 kg/m3
- mass density (313.33 K, 20000 kPa): 1033.63 ± 1.1 kg/m3
- mass density (313.33 K, 25000 kPa): 1037.06 ± 1.1 kg/m3
- mass density (313.33 K, 60000 kPa): 1058.52 ± 1.1 kg/m3
- mass density (313.33 K, 70000 kPa): 1064.01 ± 1.2 kg/m3
- mass density (313.33 K, 80000 kPa): 1069.21 ± 1.2 kg/m3
- mass density (313.33 K, 90000 kPa): 1074.2 ± 1.2 kg/m3
- mass density (313.33 K, 100000 kPa): 1078.99 ± 1.2 kg/m3
- mass density (323.18 K, 100 kPa): 1008.44 ± 1 kg/m3
- mass density (323.18 K, 1000 kPa): 1009.19 ± 1 kg/m3
- mass density (323.18 K, 3000 kPa): 1010.86 ± 1 kg/m3
- mass density (323.18 K, 10000 kPa): 1016.52 ± 1 kg/m3
- mass density (323.18 K, 15000 kPa): 1020.37 ± 1.1 kg/m3
- mass density (323.18 K, 20000 kPa): 1024.08 ± 1.1 kg/m3
- mass density (323.18 K, 25000 kPa): 1027.7 ± 1.1 kg/m3
- mass density (323.19 K, 5000 kPa): 1012.5 ± 1 kg/m3
- mass density (323.19 K, 30000 kPa): 1031.17 ± 1.1 kg/m3
- mass density (323.19 K, 40000 kPa): 1037.8 ± 1.1 kg/m3
- mass density (323.19 K, 50000 kPa): 1044.06 ± 1.1 kg/m3
- mass density (323.19 K, 60000 kPa): 1050.01 ± 1.1 kg/m3
- mass density (323.19 K, 70000 kPa): 1055.67 ± 1.1 kg/m3
- mass density (323.19 K, 80000 kPa): 1061.06 ± 1.2 kg/m3
- mass density (323.19 K, 90000 kPa): 1066.22 ± 1.2 kg/m3
- mass density (323.19 K, 100000 kPa): 1071.19 ± 1.2 kg/m3
- mass density (333.1 K, 100 kPa): 998.31 ± 1 kg/m3
- mass density (333.1 K, 1000 kPa): 999.11 ± 1 kg/m3
- mass density (333.1 K, 3000 kPa): 1000.91 ± 1 kg/m3
- mass density (333.1 K, 5000 kPa): 1002.64 ± 1 kg/m3
- mass density (333.11 K, 10000 kPa): 1006.85 ± 1 kg/m3
- mass density (333.11 K, 15000 kPa): 1010.94 ± 1 kg/m3
- mass density (333.11 K, 20000 kPa): 1014.85 ± 1 kg/m3
- mass density (333.11 K, 25000 kPa): 1018.62 ± 1.1 kg/m3
- mass density (333.11 K, 30000 kPa): 1022.27 ± 1.1 kg/m3
- mass density (333.11 K, 40000 kPa): 1029.2 ± 1.1 kg/m3
- mass density (333.11 K, 50000 kPa): 1035.72 ± 1.1 kg/m3
- mass density (333.11 K, 60000 kPa): 1041.91 ± 1.1 kg/m3
- mass density (333.11 K, 70000 kPa): 1047.69 ± 1.1 kg/m3
- mass density (333.11 K, 80000 kPa): 1053.26 ± 1.1 kg/m3
- mass density (333.11 K, 90000 kPa): 1058.57 ± 1.2 kg/m3
- mass density (333.11 K, 100000 kPa): 1063.7 ± 1.2 kg/m3
- mass density (342.97 K, 100 kPa): 987.87 ± 1 kg/m3
- mass density (342.97 K, 15000 kPa): 1001.22 ± 1 kg/m3
- mass density (342.97 K, 20000 kPa): 1005.3 ± 1 kg/m3
- mass density (342.97 K, 30000 kPa): 1013.07 ± 1 kg/m3
- mass density (342.97 K, 40000 kPa): 1020.32 ± 1.1 kg/m3
- mass density (342.97 K, 50000 kPa): 1027.1 ± 1.1 kg/m3
- mass density (342.97 K, 70000 kPa): 1039.64 ± 1.1 kg/m3
- mass density (342.97 K, 90000 kPa): 1050.91 ± 1.2 kg/m3
- mass density (342.97 K, 100000 kPa): 1056.19 ± 1.2 kg/m3
- mass density (342.98 K, 1000 kPa): 988.73 ± 1 kg/m3
- mass density (342.98 K, 3000 kPa): 990.63 ± 1 kg/m3
- mass density (342.98 K, 5000 kPa): 992.45 ± 1 kg/m3
- mass density (342.98 K, 10000 kPa): 996.91 ± 1 kg/m3
- mass density (342.98 K, 25000 kPa): 1009.24 ± 1 kg/m3
- mass density (342.98 K, 60000 kPa): 1033.53 ± 1.1 kg/m3
- mass density (342.98 K, 80000 kPa): 1045.43 ± 1.1 kg/m3
- mass density (352.82 K, 100 kPa): 977.64 ± 1 kg/m3
- mass density (352.82 K, 1000 kPa): 978.58 ± 1 kg/m3
- mass density (352.82 K, 3000 kPa): 980.59 ± 1 kg/m3
- mass density (352.82 K, 5000 kPa): 982.53 ± 1 kg/m3
- mass density (352.82 K, 10000 kPa): 987.26 ± 1 kg/m3
- mass density (352.82 K, 15000 kPa): 991.79 ± 1 kg/m3
- mass density (352.83 K, 20000 kPa): 996.08 ± 1 kg/m3
- mass density (352.83 K, 25000 kPa): 1000.24 ± 1 kg/m3
- mass density (352.83 K, 30000 kPa): 1004.25 ± 1 kg/m3
- mass density (352.83 K, 40000 kPa): 1011.8 ± 1 kg/m3
- mass density (352.83 K, 50000 kPa): 1018.87 ± 1.1 kg/m3
- mass density (352.83 K, 60000 kPa): 1025.54 ± 1.1 kg/m3
- mass density (352.83 K, 70000 kPa): 1031.82 ± 1.1 kg/m3
- mass density (352.83 K, 80000 kPa): 1037.81 ± 1.1 kg/m3
- mass density (352.83 K, 90000 kPa): 1043.47 ± 1.1 kg/m3
- mass density (352.83 K, 100010 kPa): 1048.95 ± 1.2 kg/m3
- mass density (362.66 K, 100 kPa): 967.3 ± 0.99 kg/m3
- mass density (362.66 K, 1000 kPa): 968.28 ± 0.99 kg/m3
- mass density (362.66 K, 3000 kPa): 970.41 ± 0.99 kg/m3
- mass density (362.66 K, 60000 kPa): 1017.41 ± 1.1 kg/m3
- mass density (362.67 K, 5000 kPa): 972.48 ± 1 kg/m3
- mass density (362.67 K, 10000 kPa): 977.45 ± 1 kg/m3
- mass density (362.67 K, 15000 kPa): 982.21 ± 1 kg/m3
- mass density (362.67 K, 20000 kPa): 986.74 ± 1 kg/m3
- mass density (362.67 K, 25000 kPa): 991.07 ± 1 kg/m3
- mass density (362.67 K, 30000 kPa): 995.26 ± 1 kg/m3
- mass density (362.67 K, 40000 kPa): 1003.16 ± 1 kg/m3
- mass density (362.67 K, 50000 kPa): 1010.5 ± 1.1 kg/m3
- mass density (362.67 K, 70000 kPa): 1023.98 ± 1.1 kg/m3
- mass density (362.67 K, 80000 kPa): 1030.14 ± 1.1 kg/m3
- mass density (362.67 K, 90000 kPa): 1036.01 ± 1.1 kg/m3
- mass density (362.67 K, 100000 kPa): 1041.65 ± 1.2 kg/m3
